This is an account of results in patent US11332463B2, “Spiropiperidine allosteric modulators of nicotinic acetylcholine receptors” (Merck Sharp & Dohme Corp., priority 2018, dated 2022).

Each structure is given as a SMILES string. Where two headings read alike, the source gives them in different places. Some results are limits rather than exact numbers.

For this assay, the target named is T1, human α7 nicotinic acetylcholine receptor (HEK cell line stably expressing human RIC-3 and human α7) (Homo sapiens, UniProt P36544).
T1 construct: host or cells: HEK cell line (PrecisION hnAChR α7/RIC-3)
The assay is described as follows: Automated patch-clamp electrophysiology functional assay (Assay A), IonFlux HT, whole-cell population patch. The class given is cell-based. For orientation: Patch clamp records ionic current or voltage across a cell membrane.

The mark [1] stands for this setting: HEK cells expressing human α7/RIC-3, test compound with or without 40 μM acetylcholine, holding potential −60 mV, room temperature, read-out: α7 nAChR Potency.
[2] abbreviates: automated patch-clamp electrophysiology functional assay (Assay A), read-out: α7 nAChR EC50.
Where [3] appears, read: α7 nAChR EC50 (nM), automated patch-clamp electrophysiology functional assay (Assay A).
[4] abbreviates: α7 nAChR Potency, HEK cells expressing human α7/RIC-3, test compound with or without 40 μM acetylcholine, holding potential −60 mV, room temperature.

T1 sequence (P36544 23-502): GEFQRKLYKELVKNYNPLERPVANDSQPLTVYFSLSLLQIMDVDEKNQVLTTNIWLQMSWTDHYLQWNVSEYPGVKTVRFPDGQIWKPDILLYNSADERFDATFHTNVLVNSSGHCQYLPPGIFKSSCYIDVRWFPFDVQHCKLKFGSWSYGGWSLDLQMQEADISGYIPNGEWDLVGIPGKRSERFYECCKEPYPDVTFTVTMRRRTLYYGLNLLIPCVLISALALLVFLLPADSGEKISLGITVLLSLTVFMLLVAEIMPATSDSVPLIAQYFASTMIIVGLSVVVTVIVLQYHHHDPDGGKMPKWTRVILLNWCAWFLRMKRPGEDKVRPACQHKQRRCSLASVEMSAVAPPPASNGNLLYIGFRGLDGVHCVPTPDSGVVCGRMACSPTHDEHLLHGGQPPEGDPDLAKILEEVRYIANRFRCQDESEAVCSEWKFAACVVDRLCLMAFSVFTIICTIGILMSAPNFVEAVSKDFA

For `NS(=O)(=O)N1CCC2(CC1)[C@H](c1coc(-c3ccnc(OC(F)F)c3)n1)C2(F)F` [Example 35, (2R)-2-{2-[2-(Difluoromethoxy)pyridin-4-yl]-1,3-oxazol-4-yl}-1,1-difluoro-6-azaspiro[2.5]octane-6-sulfonamide], the EC50 was 100 to 500 nM under setting [1] and 150 nM under setting [2].
Regarding `Cc1ccc(C(F)(F)F)cc1-c1nc([C@@H]2CC23CCN(S(N)(=O)=O)CC3)no1` [Example 1, (1R)-1-{5-[2-Methyl-5-(trifluoromethyl)phenyl]-1,2,4-oxadiazol-3-yl}-6-azaspiro[2.5]octane-6-sulfonamide], the EC50 was less than 100 nM under setting [1] and 98 nM under setting [2].
For the compound `NS(=O)(=O)N1CCC2(CC1)C[C@H]2c1noc(-c2c(F)cccc2C(F)(F)F)n1` [Example D12], the EC50 is, setting by setting: under setting [1], 500 to 5000 nM; under setting [2], 1200 nM.
For `COc1ccc(Cl)cc1-c1noc(C2CC23CCN(C(=O)NC(C)(C)C)CC3)n1` (racemic) [Example B9] the same measures were 5000 to 50000 nM and 5400 nM.
Take `Cc1onc(C2CC2)c1-c1nnc([C@@H]2CC23CCN(S(N)(=O)=O)CC3)o1` [Example F11]: the EC50 was 410 nM under setting [3] and 100 to 500 nM under setting [4].
For the compound `CC(C)C1CC(c2nc([C@@H]3CC34CCN(S(N)(=O)=O)CC4)no2)C1` (mixture of isomers) [Example E3], the EC50 runs as follows: under setting [1], 500 to 5000 nM; under setting [2], 1900 nM.
For `NS(=O)(=O)N1CCC2(CC1)CC2c1nc(-c2conc2C2CC2)no1` (centres unmarked) [Example C4] the same measures were 500 to 5000 nM and 1100 nM.
In the same order, the values of `Cc1cnn(C)c1-c1nc([C@@H]2CC23CCN(S(N)(=O)=O)CC3)no1` [Example E52] are 500 to 5000 nM and 1700 nM.
For `NS(=O)(=O)N1CCC2(CC1)C(c1nc(-c3ccc(F)cc3C(F)(F)F)no1)C2(Cl)Cl` (racemic) [Example C17] the same measures were 500 to 5000 nM and 2700 nM.
As to `Cn1cc(-c2conc2C2CC2)nc1[C@@H]1C(F)(F)C12CCN(S(N)(=O)=O)CC2` [Example G7], the EC50 by setting is: under setting [1], 500 to 5000 nM; under setting [2], 1600 nM.
In the same order, the values of `NS(=O)(=O)N1CCC2(CC2c2nc(-c3conc3C3CC3)no2)C(F)C1` (single isomer, unassigned) [Example I9] are 500 to 5000 nM and 3300 nM.
Turning to `NS(=O)(=O)N1CCC2(CC1)C(c1nc(-c3ccnc(OC(F)F)c3)no1)C2(F)F` (centres unmarked) [Example C9], the EC50 is 100 to 500 nM under setting [1] and 310 nM under setting [2].
On to `NS(=O)(=O)N1CCC2(CC1)C[C@H]2c1noc(-c2cnccc2C(F)(F)F)n1` [Example E57], for which the EC50 under setting [1] lay within 500 to 5000 nM.
With `Cc1ccc(C)c(-c2nc(C3C(F)(F)C34CCN(S(N)(=O)=O)C(C)C4)no2)c1` (mixture of isomers) [Example K2], the EC50 was 100 to 500 nM under setting [1] and 430 nM under setting [2].
Regarding `Cc1cnc2cc(-c3nc([C@@H]4C(F)(F)C45CCN(S(N)(=O)=O)CC5)no3)ccn12` [Example E36], the EC50 is, setting by setting: under setting [1], 500 to 5000 nM; under setting [2], 1100 nM.
Turning to `COc1ccc(Cl)cc1-c1noc(C2CC23CCN(S(=O)(=O)c2cccc4nonc24)CC3)n1` (racemic) [Example B6], under setting [1], the EC50 lay in the range of 500 to 5000 nM.
In the case of `NS(=O)(=O)N1CCC2(CC1)[C@H](c1noc(-c3cc(C(F)(F)F)n(C4CC4)n3)n1)C2(F)F` [Example E46], the EC50 is 500 to 5000 nM under setting [1] and 510 nM under setting [2].
Regarding `NS(=O)(=O)N1CCC2(CC1)C[C@H]2c1noc(-c2ccc(OCC(F)(F)F)nc2)n1` [Example E63], the EC50 under setting [1] is 500 to 5000 nM.
For `Cc1ccc(C)c(-c2noc(C3CC34CCN(S(N)(=O)=O)CC4(F)F)n2)c1` (single isomer, unassigned) [Example I4], the EC50 is 500 to 5000 nM under setting [1] and 1500 nM under setting [2].
In the same order, the values of `Cc1ccc(F)cc1-c1nnc([C@@H]2CC23CCN(S(N)(=O)=O)CC3)o1` [Example F5] are 100 to 500 nM and 420 nM.
For `NS(=O)(=O)N1CCC2(CC1)[C@H](c1nc(-c3ccc(F)cc3C(F)(F)F)co1)C2(F)F` [Example G10] the same measures were less than 100 nM and 28 nM.
In the case of `NS(=O)(=O)N1CCC2(CC1)C[C@H]2c1csc(-c2cccc(OC(F)(F)F)c2)n1` [Example 7, (1R)-1-{2-[3-(Trifluoromethoxy)phenyl]-1,3-thiazol-4-yl}-6-azaspiro[2.5]octane-6-sulfonamide], the EC50 under setting [1] is 500 to 5000 nM and the EC50 under setting [2] was 1100 nM.
In the same order, the values of `Cc1ccccc1-c1nnc([C@@H]2CC23CCN(S(N)(=O)=O)CC3)s1` [Example F8] are 500 to 5000 nM and 750 nM.
In the same order, the values of `NS(=O)(=O)N1CCC2(CC1)[C@H](c1cc(-c3conc3C3CC3)no1)C2(F)F` [Example G8] are less than 100 nM and 16 nM.
In the same order, the values of `NS(=O)(=O)N1CCC2(CC1)C[C@H]2c1noc(C2(c3cc(F)ccc3F)CCC2)n1` [Example E10] are 500 to 5000 nM and 3400 nM.
`NS(=O)(=O)N1CCC2(CC1)C[C@H]2c1cnn(-c2cccc(OC(F)(F)F)c2)c1` [Example 15, (1R)-1-{1-[3-(Trifluoromethoxy)phenyl]-1H-pyrazol-4-yl}-6-azaspiro[2.5]octane-6-sulfonamide]: the EC50 under setting [1] was in the range of 100 to 500 nM and the EC50 under setting [2] was 330 nM.
For `NS(=O)(=O)N1CCC2(CC1)C[C@H]2c1noc(-c2ccnn2C2CC2)n1` [Example E30] the same measures were 500 to 5000 nM and 780 nM.
As to `NS(=O)(=O)N1CCC2(CC1)C[C@H]2c1noc(-c2cc(Cl)ccc2OC(F)(F)F)n1` [Example D22], the EC50 is 100 to 500 nM under setting [1] and 410 nM under setting [2].
In the same order, the values of `NS(=O)(=O)N1CCC2(CC1)C[C@H]2c1noc(-c2cccc(C(F)(F)F)n2)n1` [Example E17] are 500 to 5000 nM and 1400 nM.
Regarding `Cc1noc(C)c1-c1noc(C2C(F)(F)C23CCN(S(N)(=O)=O)CC3)n1` (racemic) [Example C3], the EC50 is 100 to 500 nM under setting [1] and 400 nM under setting [2].
For `NS(=O)(=O)N1CCC2(CC1)C[C@H]2c1nc(-c2ccc(F)cc2C(F)(F)F)no1` [Example 5, (1R)-1-{3-[4-Fluoro-2-(trifluoromethyl)phenyl]-1,2,4-oxadiazol-5-yl}-6-azaspiro[2.5]octane-6-sulfonamide] the same measures were 500 to 5000 nM and 1200 nM.
In the same order, the values of `Cc1ccccc1-c1nnc([C@@H]2C(F)(F)C23CCN(S(N)(=O)=O)CC3)o1` [Example F13] are 100 to 500 nM and 400 nM.
In the same order, the values of `Cn1nc2c(c1-c1nc([C@@H]3C(F)(F)C34CCN(S(N)(=O)=O)CC4)no1)CCCC2` [Example E66] are 100 to 500 nM and 120 nM.
As for `NS(=O)(=O)N1CCC2(CC1)[C@@H](c1nc(-c3ccc(F)cc3C(F)(F)F)no1)C2(F)F` [Example H2], the EC50 reads like this: under setting [1], 500 to 5000 nM; under setting [2], 2900 nM.
As for `NS(=O)(=O)N1CCC2(CC1)C[C@H]2c1noc(-c2ccccc2OC(F)F)n1` [Example D4], the EC50 is, setting by setting: under setting [1], 100 to 500 nM; under setting [2], 190 nM.
Take `NS(=O)(=O)N1CCC2(CC1)C[C@H]2c1nnc(-c2ccccc2OCC(F)(F)F)s1` [Example F7]: the EC50 by setting is: under setting [1], 100 to 500 nM; under setting [2], 480 nM.
For `Cc1ccc(C2CC2)c(-c2nc([C@@H]3C(F)(F)C34CCN(S(N)(=O)=O)CC4)no2)c1` [Example 30, (2R)-2-[5-(2-Cyclopropyl-5-methylphenyl)-1,2,4-oxadiazol-3-yl]-1,1-difluoro-6-azaspiro[2.5]octane-6-sulfonamide] the same measures were less than 100 nM and 2.4 nM.
In the same order, the values of `NS(=O)(=O)N1CCC2(CC1)C[C@H]2c1nc(-c2ccccc2)co1` [Example G1] are 500 to 5000 nM and 4000 nM.
Consider `NS(=O)(=O)N1CCC2(CC1)C[C@H]2c1nnc(-c2cccc(OC(F)F)c2)s1` [Example F10], for which the EC50 reads like this: under setting [3], 450 nM; under setting [4], 100 to 500 nM.
`NS(=O)(=O)N1CCC2(CC1)C[C@H]2c1noc(-c2ocnc2C(F)(F)F)n1` [Example E23]: the EC50 is, setting by setting: under setting [1], 500 to 5000 nM; under setting [2], 4500 nM.
In the same order, the values of `NS(=O)(=O)N1CCC2(CC1)C[C@H]2c1noc(-c2ccccc2Oc2ccccc2)n1` [Example E71] are 100 to 500 nM and 360 nM.
For `Cc1n[nH]c(C2CC2)c1-c1nc([C@@H]2C(F)(F)C23CCN(S(N)(=O)=O)CC3)no1` [Example E41] the same measures were less than 100 nM and 15 nM.
As to `NS(=O)(=O)N1CCC2(CC1)C[C@H]2c1noc(-c2ccccc2-n2cccc2)n1` [Example E73], the EC50 reads like this: under setting [1], 500 to 5000 nM; under setting [2], 640 nM.
On to `Cc1ccc(C)c(-c2noc(C3(C)C(F)(F)C34CCN(S(N)(=O)=O)CC4)n2)c1` (racemic) [Example C18], for which the EC50 was 500 to 5000 nM under setting [1] and 1600 nM under setting [2].
Take `NS(=O)(=O)N1CCC2(CC2c2nc(-c3conc3C3CC3)no2)C(F)C1` (single isomer, unassigned) [Example I6]: the EC50 runs as follows: under setting [1], 500 to 5000 nM; under setting [2], 840 nM.
As to `NS(=O)(=O)N1CCC2(C(F)C1)C(c1nc(-c3ccc(F)cc3C(F)(F)F)no1)C2(F)F` (centres unmarked) [Example I17], under setting [1], the EC50 was in the range of 500 to 5000 nM.
Turning to `NS(=O)(=O)N1CCC2(CC1)C[C@H]2c1noc(-c2ccn(CC(F)(F)F)n2)n1` [Example E25], the EC50 under setting [1] was in the range of 500 to 5000 nM and the EC50 under setting [2] was 2200 nM.
For `Cc1onc(C2CC2)c1-c1cnc([C@@H]2CC23CCN(S(N)(=O)=O)CC3)o1` [Example 28, (1R)-1-[5-(3-Cyclopropyl-5-methylisoxazol-4-yl)-1,3-oxazol-2-yl]-6-azaspiro[2.5]octane-6-sulfonamide] the same measures were 100 to 500 nM and 120 nM.
